How the values were obtained:
[1] = Equilibrium surface tension, Kruss K-12 tensiometer with platinum Wilhelmy plate; assay type: physicochemical; conditions: 25±1° C.; for EST (0.01 WT %, mN/m): 0.01 wt % in water; for EST (0.1 WT %, mN/m): 0.1 wt % in water; for EST (1.0 WT %, mN/m): 1.0 wt % in water
Experimental: Equilibrium surface tensions were determined using a Kruss K-12 tensiometer with a platinum Wilhelmy plate, maintaining the temperature at 25±1° C. by means of a constant temperature circulating bath.

[2] = Ross-Miles foam test (modified, ASTM D1173-53); assay type: physicochemical; conditions: surfactant in water; 0.01 wt % and 0.1 wt %, table does not say which
[3] = Dynamic surface tension, maximum bubble pressure method; assay type: physicochemical; conditions: for DST (0.1 WT %, mN/m) 0.1 b/s / DST (0.1 WT %, mN/m) 10 b/s: 0.1 wt % in distilled and deionized water; for DST (0.1 WT %, mN/m) 0.1 b/s / DST (0.5 WT %, mN/m) 0.1 b/s: 0.1 bubbles/sec; for DST (0.1 WT %, mN/m) 10 b/s / DST (0.5 WT %, mN/m) 10 b/s: 10 bubbles/sec; for DST (0.5 WT %, mN/m) 0.1 b/s / DST (0.5 WT %, mN/m) 10 b/s: 0.5 wt % in distilled and deionized water
Experimental: Solutions in distilled and deionized water of the surfactants of the invention were prepared. […] In a practical sense, high surface creation rates refer to rapid processes such as a spray or roller-applied coating, a high speed printing operation, or the rapid application of an agricultural product or a cleaner.

[4] = Cleaning performance, ASTM D4488-95, reflectance of white vinyl composition tile; conditions: 0.1% (wt %) surfactant
Text: Although dynamic and equilibrium surface tension as well as foam influence the cleaning ability of a surfactant, other factors also affect cleaning performance. Thus one good way to determine the cleaning ability of a surfactant is to apply a soil to a substrate, clean that substrate with the surfactant of interest and some benchmark surfactants, and compare relative cleaning efficacies in terms of percent soil removal. One method for conducting such testing is described in ASTM D4488-95, “Standard Guide for Testing Cleaning Performance of Products Intended for Use on Resilient Flooring and Washable Walls.” This method was followed according to the particulate and oily soil/vinyl tiles test methodology, with cleaning performance being evaluated by reading average reflectance values (5 readings/tile) of a white vinyl composition tile before and after cleaning (Table 6). The higher the reflectance value the better the cleaning ability of the surfactant.
The cleaning performance of surfactants according to the invention was compared side by side with that of two benchmark surfactants, Neodol 23-6.5 (available from Shell Chemical of Houston, Tex.) and AG 6202 (available from Akzo Nobel of McCook, Ill.), an alcohol ethoxylate and an alkylpolyglucoside surfactant, respectively.

[5] = Aqueous solubility comparison; conditions: in water
Experimental: Comparison of the aqueous solubilities of several N,N′-dialkyl-N,N′-bis(1-deoxyglucityl)ethylenediamines was performed, with the results as follows:
The ratios of compounds are on a molar basis.

Compound	EST (0.01 WT %, mN/m) [1] [mN/m]	EST (0.1 WT %, mN/m) [1] [mN/m]	EST (1.0 WT %, mN/m) [1]	Ross Miles Final Foam (cm) [2] [cm]	Ross Miles Initial Foam (cm) [2] [cm]	DST (0.1 WT %, mN/m) 0.1 b/s [3] [mN/m]	DST (0.1 WT %, mN/m) 10 b/s [3] [mN/m]	DST (0.5 WT %, mN/m) 0.1 b/s [3] [mN/m]	DST (0.5 WT %, mN/m) 10 b/s [3] [mN/m]	dynamic surface tension reduction in words ([3]; Table 4 data, strong at low bubble rates)	% SOIL REMOVAL [4] [%]	aqueous solubility in words [5]
CCCCCCNC[C@H](O)[C@@H](O)[C@H](O)[C@H](O)CO [N-Hexylglucamine]	64	60	52 mN/m	1.0	2.0	68	70	55	57			
N,N′-dioctyl-N,N′-bis(1-deoxyglucityl)ethylenediamine [DODGEDA]											48	
CCCCNC[C@H](O)[C@@H](O)[C@H](O)[C@H](O)CO [N-Butylglucamine]			≧50 mN/m	0.3	2.5	71	72	70	71			
CCCCCCN(CCN(CCCCCC)C[C@H](O)[C@@H](O)[C@H](O)[C@H](O)CO)C[C@H](O)[C@@H](O)[C@H](O)[C@H](O)CO [DHDGEDA, N,N′-dihexyl-N,N′-bis(1-deoxyglucityl)-1,2-diaminoethane]	57	33	30 mN/m	1.5	3.6	37	51	30	32		67	extreme insolubility

The next lines start with results.

EST (0.01 WT %, mN/m) [1] [mN/m]	EST (0.1 WT %, mN/m) [1] [mN/m]	EST (1.0 WT %, mN/m) [1]	Ross Miles Final Foam (cm) [2] [cm]	Ross Miles Initial Foam (cm) [2] [cm]	DST (0.1 WT %, mN/m) 0.1 b/s [3] [mN/m]	DST (0.1 WT %, mN/m) 10 b/s [3] [mN/m]	DST (0.5 WT %, mN/m) 0.1 b/s [3] [mN/m]	DST (0.5 WT %, mN/m) 10 b/s [3] [mN/m]	dynamic surface tension reduction in words ([3]; Table 4 data, strong at low bubble rates)	Compound	% SOIL REMOVAL [4] [%]	aqueous solubility in words [5]
62	50	47 mN/m	0.5	1.8	63	67	56	47	moderate to low	CCCCN(CCN(CCCC)C[C@H](O)[C@@H](O)[C@H](O)[C@H](O)CO)C[C@H](O)[C@@H](O)[C@H](O)[C@H](O)CO [DBDGEDA, N,N′-dibutyl-N,N′-bis(1-deoxyglucityl)-1,2-diaminoethane]	45	
55	35	35 mN/m	0.3	2.0	54	65	48	62		CCCCCCCCNC[C@H](O)[C@@H](O)[C@H](O)[C@H](O)CO [N-Octylglucamine]		
